Consider 1 molecule from US20250340565A1, “CD73 INHIBITOR COMPOUNDS” (AdoRx Therapeutics Limited, priority 2022, published 2025).

The target in experiment [1] is human (h)CD73 (amino acids Trp27-Lys547) (Homo sapiens, UniProt P21589). Description: CD73 inhibition assay (Malachite Green phosphate detection). Conditions: 250 pM hCD73, 12.5 μM AMP, 20 min pre-incubation, absorbance 620 nm. It counts as biochemical. The essentials: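 250 pM hCD73 (Trp27-Lys547) preincubated 20 min with compound (1% DMSO) in 25 mM Tris pH 7.5, 5 mM MgCl2, 0.002% Tween20. Reaction with 12.5 μM AMP for 20 min at room temperature; phosphate detected by malachite green at 620 nm. Data normalised to no compound (0%) and 10 μM control compound (100%).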

Experiment [2] deals with CD73 activity in U138-MG cells (Homo sapiens (Human), UniProt P21589). Kind of experiment: U138-MG inhibition assay (inorganic phosphate from AMP, PiColorLock Gold). It counts as cell-based. As to conditions: 100 μM AMP, 30 min pre-incubation, 1 hour at 37° C. In a few lines:
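Washed U138-MG cells in HEPES-buffered saline (pH 7.4) preincubated 30 min at 37 °C with inhibitor, then given 100 μM AMP (final) for 1 h at 37 °C. Released phosphate in supernatant read by PiColorLock Gold; no-AMP wells define 100% inhibition. IC50 taken as inflection of sigmoidal curve.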

Another experiment deals with CD73 in whole blood (Homo sapiens (Human), UniProt P21589). Kind of experiment: Whole blood AMP Glo assay. It counts as cell-based. Conditions: whole blood of healthy volunteers, 10 μM AMP, 30 min pre-incubation, 15 min at 37° C., levamisole 1.5 mM. The essentials:
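Heparinised healthy-donor human whole blood, with 1.5 mM levamisole, preincubated with compound 30 min at 37 °C, then 10 μM AMP added for 15 min at 37 °C (0.6% DMSO). Remaining plasma AMP measured by AMP-Glo luminescence against a standard curve; IC50 from curve inflection point.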

CD73 in whole blood, sequence (P21589 27-574): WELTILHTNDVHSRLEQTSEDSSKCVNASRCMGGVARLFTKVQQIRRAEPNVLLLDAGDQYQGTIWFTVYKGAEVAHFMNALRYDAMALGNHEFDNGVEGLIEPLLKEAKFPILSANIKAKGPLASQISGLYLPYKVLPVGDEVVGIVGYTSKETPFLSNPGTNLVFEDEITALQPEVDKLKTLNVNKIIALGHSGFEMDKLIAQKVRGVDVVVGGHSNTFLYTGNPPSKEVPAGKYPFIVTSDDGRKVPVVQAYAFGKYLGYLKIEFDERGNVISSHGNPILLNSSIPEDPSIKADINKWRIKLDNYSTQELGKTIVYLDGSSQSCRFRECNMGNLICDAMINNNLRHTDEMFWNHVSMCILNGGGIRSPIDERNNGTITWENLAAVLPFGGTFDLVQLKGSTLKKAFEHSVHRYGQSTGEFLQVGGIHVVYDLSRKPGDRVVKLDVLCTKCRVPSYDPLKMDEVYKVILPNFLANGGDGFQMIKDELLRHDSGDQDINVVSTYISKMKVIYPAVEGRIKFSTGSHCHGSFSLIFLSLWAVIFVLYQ
CD73 activity in U138-MG cells, sequence (P21589 27-574): as above

For the molecule `CC1(C)CN(c2cncc3nn(-c4c[nH]c(=O)[nH]c4=O)cc23)CC1(F)F` [Example 31, 5-[4-(3,3-difluoro-4,4-dimethyl-pyrrolidin-1-yl)pyrazolo[3,4-c]pyridine-2-yl]-1H-pyrimidine-2,4-dione], the IC50 in experiment [1] worked out at 20.8 nM; in experiment [2], 12.3 nM; against CD73 in whole blood it was 32 nM.
